Measurements taken from patent US20250179103A1, “6-OXODECAHYDROPYRROLO[1,2-A][1,5]DIAZOCINE AND 6-OXODECAHYDRO-4H-PYRROLO[2,1-D][1,5]THIAZOCINE DERIVATIVES AS STAT3 AND STAT6 MODULATORS FOR THE TREATMENT OF CANCER AND INFLAMMATORY CONDITIONS” (Recludix Pharma, Inc., priority 2022, published 2025).

tested on: pY641-STAT6 in Peripheral Blood Mononuclear Cells (PBMC); assay: MSD-pSTAT-PBMC Assay (pSTAT6, IL-4 stimulated); type: cell-based, Human; conditions: Homo sapiens, compound 3 hrs, then 1 ng/mL IL-4 for 10 min
Description: Cryopreserved Peripheral Blood Mononuclear Cells (PBMC) are from AllCells. Recombinant Human IL-4 and IL-6 are from Peprotech. Mouse monoclonal anti-STAT3 antibody, rabbit monoclonal anti-pY705-STAT3 antibody, rabbit monoclonal Anti-pY641-STAT6 antibody, and lysis buffer are from Cell Signaling Technology (CST). Mouse monoclonal anti-STAT6 antibody is from BioLegend. Assay plates, blocker, and anti-rabbit secondary antibody are from Meso Scale Discovery (MSD).
Cryopreserved PBMCs were thawed out and allowed to recover overnight in IMDM+10% heat-inactivated FBS prior to plating 50,000 (STAT3) or 25,000 (STAT6) cells per well in 96-well U-bottom tissue culture plates. Cells were treated with compound for 3 hrs, then stimulated with 10 ng/mL IL-6 (STAT3) or 1 ng/mL IL-4 (STAT6) for 10 min. Cells were then spun down and washed with ice-cold PBS prior to lysing the cell pellet with 1× lysis buffer (CST) with 1×HALT protease and phosphatase inhibitor cocktail (Thermo). Lysates were transferred to and incubated overnight at 4° C. with shaking in QuickPlex 96-well high bind assay plates (MSD) pre-coated overnight with 30 μL per well of 0.6 μg/mL mouse monoclonal anti-STAT3 antibody (STAT3) or 2 μg/mL mouse monoclonal anti-STAT6 antibody (STAT6) in 1×PBS, and pre-blocked for 1 hour with 3% Blocker-A (MSD). Captured protein in the assay plates were then washed and probed with 25 μL per well of 0.25 μg/ml rabbit monoclonal anti-pY705-STAT3 antibody (STAT3) or […] rabbit monoclonal Anti-pY641-STAT6 antibody (STAT6) in 1% Blocker-A for 1 hour at room temperature with shaking, then washed and probed with 25 ul per well of 1 ug/ml Sulfo-TAG Labeled Goat Anti-Rabbit Antibody (MSD) in 1% Blocker-A for 1 hour at room temperature with shaking. Assay plates were then washed and 150 μL of 1× Read Buffer-T (MSD) was added to each well prior to reading on an SQ120 MSD Plate Reader. Assay signal from each sample was subtracted by the signal from unstimulated control wells and normalized to DMSO control wells. IC50 values were calculated using Graph Pad Prism Dose-Response Nonlinear Regression with variable slope. For both pSTAT3 and pSTAT6 A=≤100 nM; B=>100-1000 nM; C=>1000-3000 nM; and D=>3 μM.

Row | Structure (SMILES) | IC50 [µM]
1 | CC(=O)N1CC[C@H]2CC[C@@H](C(=O)N3C[C@H](c4cc[nH]c(=O)c4)[C@@H](C#N)C3)N2C(=O)[C@@H](NC(=O)c2ccc3ccc(C(F)(F)P(=O)(OCCSC(=O)CC(C)C)OCOC(=O)OC(C)C)cc3c2)C1 (single isomer, unassigned) [Compound 302, S-(2-((((7-(((5S,8S, 10aR)-3-acetyl-8-((3R,4S or 3S,4R)-3-cyano-4-(2-oxo-1,2-dihydro-pyridin-4-yl)pyrrolidine-1-carbonyl)-6-oxodecahydro-pyrrolo[1,2-a][1,5]diazocin-5-yl)carbamoyl)naphthalen-2-yl)difluoro-methyl)(((iso-propoxy-carbonyl)oxy)methoxy)phos-phoryl)oxy)ethyl)3-methylbutane-thioate] | 0.1 to 1
2 | Cc1ccc2onc(C(=O)N3CC[C@H]4CC[C@@H](C(=O)N5C[C@@H](C#N)[C@H](c6ccccc6)C5)N4C(=O)[C@@H](NC(=O)c4ccc5ccc(C(F)(F)P(=O)(OCCSC(=O)CC(C)C)OCCSC(=O)CC(C)C)cc5c4)C3)c2c1 (single isomer, unassigned) [Compound 433] | ≤ 0.1
3 | CCCOC(=O)[C@H](C)NP(=O)(Oc1ccccc1)C(F)c1ccc2ccc(C(=O)N[C@H]3CN(C(C)=O)CC[C@H]4CC[C@@H](C(=O)N5CC(c6ccn(C)c(=O)c6)CC56CC6)N4C3=O)cc2c1 (stereo partly drawn) [Compound 406, propyl (((7-(((5S,8S,10aR)-3-acetyl-8-(6-(1-methyl-2-oxo-1,2-dihydro-pyridin-4-yl)-4-azaspiro[2.4]heptane-4-carbonyl)-6-oxodeca-hydropyrrolo [1,2-a] [1,5]diazocin-5-yl)carbamoyl)naphthalen-2-yl)fluoromethyl) (phenoxy)phosphoryl)-L-alaninate] | 0.1 to 1
4 | CCCOC(=O)[C@H](C)NP(=O)(Oc1ccccc1)C(F)c1ccc2ccc(C(=O)N[C@H]3CN(C(=O)c4cc(Cl)c5nc(C)ccc5c4)CC[C@H]4CC[C@@H](C(=O)N5CCOCC5)N4C3=O)cc2c1 (stereo partly drawn) [Compound 407, propyl (((7-(((5S,8S,10aR)-3-(8-chloro-2-methylquinoline-6-carbonyl)-8-(morpholine-4-carbonyl)-6-oxodeca-hydropyrrolo [1,2-a][1,5]diazocin-5-yl)carbamoyl)naphthalen-2-yl)fluoromethyl) (phenoxy)phosphoryl)-L-alaninate] | 1 to 3
5 | CCCOC(=O)[C@H](C)NP(=O)(Cc1ccc2ccc(C(=O)N[C@H]3CN(C(C)=O)CC[C@H]4CC[C@@H](C(=O)N5CC(c6ccn(C)c(=O)c6)CC56CC6)N4C3=O)cc2c1)Oc1ccccc1 (stereo partly drawn) [Compound 408, propyl (((7-(((5S,8S,10aR)-3-acetyl-8-(6-(1-methyl-2-oxo-1,2-dihydropyridin-4-yl)-4-azaspiro [2.4]heptane-4-carbonyl)-6-oxodeca-hydropyrrolo [1,2-a] [1,5]diazocin-5-yl)carbamoyl)naphthalen-2-yl)methyl) (phenoxy)phosphoryl)-L-alaninate] | 1 to 3
6 | CCCOC(=O)[C@H](C)NP(=O)(Oc1ccccc1)C(F)c1ccc2ccc(C(=O)N[C@H]3CN(C(C)=O)CC[C@H]4CC[C@@H](C(=O)N5CCC(c6cccnc6)C5)N4C3=O)cc2c1 (stereo partly drawn) [Compound 409, propyl (((7-(((5S,8S,10aR)-3-acetyl-6-oxo-8-(3-(pyridin-3-yl)pyrrolidine-1-carbonyl)decahydropyrrolo [1,2-a] [1,5]diazocin-5-yl)carbamoyl)naphthalen-2-yl)fluoromethyl) (phenoxy)phosphoryl)-L-alaninate] | 1 to 3
7 | CCCOC(=O)[C@H](C)NP(=O)(Oc1ccccc1)C(F)c1ccc2ccc(C(=O)N[C@H]3CN(C(=O)c4noc5ccc(C)cc45)CC[C@H]4CC[C@@H](C(=O)N5CCN(S(C)(=O)=O)CC5)N4C3=O)cc2c1 (stereo partly drawn) [Compound 410, propyl ((fluoro(7-(((5S,8S,10aR)-3-(5-methylbenzo [d]isoxazole-3-carbonyl)-8-(4-(methylsulfonyl)piperazine-1-carbonyl)-6-oxodeca-hydropyrrolo [1,2-a][1,5]diazocin-5-yl)carbamoyl)naphthalen-2-yl)methyl) (phenoxy)phosphoryl)-L-alaninate] | 0.1 to 1
8 | CCCOC(=O)[C@H](C)NP(=O)(Oc1ccccc1)C(F)c1ccc2ccc(C(=O)N[C@H]3CN(C(=O)c4noc5ccc(C)cc45)CC[C@H]4CC[C@@H](C(=O)N5CCN(c6nsc7ccccc67)CC5)N4C3=O)cc2c1 (stereo partly drawn) [Compound 411, propyl (((7-(((5S,8S,10aR)-8-(4-(benzo[d]isothiazol-3-yl)piperazine-1-carbonyl)-3-(5-methylbenzo [d]isoxazole-3-carbonyl)-6-oxodeca-hydropyrrolo [1,2-a][1,5]diazocin-5-yl)carbamoyl)naphthalen-2-yl)fluoromethyl) (phenoxy)phosphoryl)-L-alaninate] | > 3
9 | CCCOC(=O)[C@H](C)NP(=O)(Oc1ccccc1)C(F)c1ccc2ccc(C(=O)N[C@H]3CN(C(=O)c4noc5ccc(C)cc45)CC[C@H]4CC[C@@H](C(=O)N5CCOC[C@@H]5c5ccccc5)N4C3=O)cc2c1 (stereo partly drawn) [Compound 412, propyl ((fluoro(7-(((5S,8S,10aR)-3-(5-methylbenzo [d]isoxazole-3-carbonyl)-6-oxo-8-((S)-3-phenyl-morpholine-4-carbonyl)decahydro-pyrrolo [1,2-a][1,5]diazocin-5-yl)carbamoyl)naphthalen-2-yl)methyl) (phenoxy)phosphoryl)-L-alaninate] | 0.1 to 1
10 | CCCOC(=O)[C@H](C)NP(=O)(Oc1ccccc1)C(F)c1ccc2ccc(C(=O)N[C@H]3CN(C(=O)c4noc5ccc(C)cc45)CC[C@H]4CC[C@@H](C(=O)N5CCOC[C@H]5c5ccccc5)N4C3=O)cc2c1 (stereo partly drawn) [Compound 413, propyl ((fluoro(7-(((5S,8S,10aR)-3-(5-methylbenzo [d]isoxazole-3-carbonyl)-6-oxo-8-((R)-3-phenyl-morpholine-4-carbonyl)decahydro-pyrrolo [1,2-a][1,5]diazocin-5-yl)carbamoyl)naphthalen-2-yl)methyl) (phenoxy)phosphoryl)-L-alaninate] | ≤ 0.1
11 | CCCOC(=O)[C@H](C)NP(=O)(Oc1ccccc1)C(F)c1ccc2ccc(C(=O)N[C@H]3CN(C(=O)c4noc5ccc(C)cc45)CC[C@H]4CC[C@@H](C(=O)N5C[C@@H]6C[C@H]5CO6)N4C3=O)cc2c1 (stereo partly drawn) [Compound 414, propyl (((7-(((5S,8S,10aR)-8-((1S,4S)-2-oxa-5-azabicyclo [2.2.1]heptane-5-carbonyl)-3-(5-methylbenzo [d]isoxazole-3-carbonyl)-6-oxodeca-hydropyrrolo [1,2-a][1,5]diazocin-5-yl)carbamoyl)naphthalen-2-yl)fluoromethyl) (phenoxy)phosphoryl)-L-alaninate] | ≤ 0.1
12 | CCCOC(=O)[C@H](C)NP(=O)(Oc1ccccc1)C(F)c1ccc2ccc(C(=O)N[C@H]3CN(C(=O)c4noc5ccc(C)cc45)CC[C@H]4CC[C@@H](C(=O)N5CCOC(Cc6ccccc6)C5)N4C3=O)cc2c1 (stereo partly drawn) [Compound 415, propyl (((7-(((5S,8S,10aR)-8-(2-benzyl-morpholine-4-carbonyl)-3-(5-methylbenzo [d]isoxazole-3-carbonyl)-6-oxodeca-hydropyrrolo [1,2-a][1,5]diazocin-5-yl)carbamoyl)naphthalen-2-yl)fluoromethyl) (phenoxy)phosphoryl)-L-alaninate] | 0.1 to 1
